Test results reported in PubChem BioAssay (NCI).
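These data come from cells grown in 96-well plates and exposed to compound for 48 hours at five concentrations. The concentration for 50% growth inhibition is given as GI50. TGI marks complete inhibition of growth.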

Tests used:
Experiment in all cases: DTP human tumour cell line panel, 48 h
UACC-62 melanoma = tested on: UACC-62 melanoma
HOP-92 NSCLC = tested on: HOP-92 NSCLC
SNB-75 CNS = tested on: SNB-75 CNS
KM12 colon = tested on: KM12 colon
BT-549 breast = tested on: BT-549 breast
U251 CNS = tested on: U251 CNS
NCI-H23 lung = tested on: NCI-H23 lung
DU-145 prostate = tested on: DU-145 prostate
ACHN renal = tested on: ACHN renal
COLO 205 colon = tested on: COLO 205 colon
UO-31 renal = tested on: UO-31 renal
HOP-62 NSCLC = tested on: HOP-62 NSCLC
A549 NSCLC = tested on: A549 NSCLC
NCI/ADR-RES ovarian = tested on: NCI/ADR-RES ovarian
TK-10 renal = tested on: TK-10 renal
RPMI-8226 leukemia = tested on: RPMI-8226 leukemia
NCI-H522 lung = tested on: NCI-H522 lung
CAKI-1 renal = tested on: CAKI-1 renal
SK-MEL-2 melanoma = tested on: SK-MEL-2 melanoma
HT29 colon = tested on: HT29 colon
PC-3 prostate = tested on: PC-3 prostate
MALME-3M melanoma = tested on: MALME-3M melanoma
HCC-2998 colon = tested on: HCC-2998 colon
M14 melanoma = tested on: M14 melanoma
OVCAR-4 ovarian = tested on: OVCAR-4 ovarian
SW-620 colon = tested on: SW-620 colon
SF-295 CNS = tested on: SF-295 CNS
HS 578T breast = tested on: HS 578T breast
SK-MEL-28 melanoma = tested on: SK-MEL-28 melanoma
CCRF-CEM leukemia = tested on: CCRF-CEM leukemia
SK-MEL-5 melanoma = tested on: SK-MEL-5 melanoma
HL-60(TB) leukemia = tested on: HL-60(TB) leukemia
HCT-15 colon = tested on: HCT-15 colon
UACC-257 melanoma = tested on: UACC-257 melanoma
SF-268 CNS = tested on: SF-268 CNS
K-562 leukemia = tested on: K-562 leukemia
OVCAR-8 ovarian = tested on: OVCAR-8 ovarian
OVCAR-5 ovarian = tested on: OVCAR-5 ovarian
SR leukemia = tested on: SR leukemia
NCI-H226 lung = tested on: NCI-H226 lung
786-0 renal = tested on: 786-0 renal
SNB-19 CNS = tested on: SNB-19 CNS
HCT-116 colon = tested on: HCT-116 colon
SN12C renal = tested on: SN12C renal
MOLT-4 leukemia = tested on: MOLT-4 leukemia
SK-OV-3 ovarian = tested on: SK-OV-3 ovarian
NCI-H460 lung = tested on: NCI-H460 lung
EKVX NSCLC = tested on: EKVX NSCLC
MCF7 breast = tested on: MCF7 breast
T-47D breast = tested on: T-47D breast
LOX IMVI melanoma = tested on: LOX IMVI melanoma
MDA-MB-435 = tested on: MDA-MB-435
MDA-MB-231 breast = tested on: MDA-MB-231 breast
OVCAR-3 ovarian = tested on: OVCAR-3 ovarian
RXF 393 renal = tested on: RXF 393 renal
A498 renal = tested on: A498 renal
IGROV1 ovarian = tested on: IGROV1 ovarian
SF-539 CNS = tested on: SF-539 CNS

For `C=C1C(=O)O[C@H]2[C@H]1CC/C(COC(=O)NCc1ccc(OC)cc1)=C\CC[C@@]1(C)O[C@@H]21`, the GI50 (UACC-62 melanoma) was 1590 nM, the TGI (UACC-62 melanoma) was 3160 nM and the GI50 (HOP-92 NSCLC) was 559 nM. For the same compound, the TGI (HOP-92 NSCLC) was 1830 nM, the GI50 (SNB-75 CNS) was 1000 nM and the TGI (SNB-75 CNS) was 15300 nM. For the same compound, the GI50 (KM12 colon) was 4750 nM, the TGI (KM12 colon) was 20500 nM and the GI50 (BT-549 breast) was 696 nM. It also gave a TGI (BT-549 breast) of 2070 nM, a GI50 (U251 CNS) of 2650 nM and a TGI (U251 CNS) of 16200 nM. It also gave a GI50 (NCI-H23 lung) of 1450 nM, a TGI (NCI-H23 lung) of 7960 nM and a GI50 (DU-145 prostate) of 726 nM. The TGI (DU-145 prostate) was 2950 nM, the GI50 (ACHN renal) was 580 nM and the TGI (ACHN renal) was 1490 nM. The GI50 (COLO 205 colon) was 656 nM, the TGI (COLO 205 colon) was 1550 nM and the GI50 (UO-31 renal) was 501 nM. It also gave a TGI (UO-31 renal) of 991 nM, a GI50 (HOP-62 NSCLC) of 7980 nM and a TGI (HOP-62 NSCLC) of 24100 nM. It also gave a GI50 (A549 NSCLC) of 4280 nM, a TGI (A549 NSCLC) of 19200 nM and a GI50 (NCI/ADR-RES ovarian) of 2690 nM. For the same compound, the TGI (NCI/ADR-RES ovarian) was 21600 nM, the GI50 (TK-10 renal) was 359 nM and the TGI (TK-10 renal) was 1510 nM. The GI50 (RPMI-8226 leukemia) was 683 nM, the TGI (RPMI-8226 leukemia) was 2300 nM and the GI50 (NCI-H522 lung) was 378 nM. The TGI (NCI-H522 lung) was 1150 nM, the GI50 (CAKI-1 renal) was 628 nM and the TGI (CAKI-1 renal) was 2080 nM. For the same compound, the GI50 (SK-MEL-2 melanoma) was 3040 nM, the TGI (SK-MEL-2 melanoma) was 10400 nM and the GI50 (HT29 colon) was 835 nM. The TGI (HT29 colon) was 2780 nM, the GI50 (PC-3 prostate) was 2610 nM and the TGI (PC-3 prostate) was 14300 nM. The GI50 (MALME-3M melanoma) was 554 nM, the TGI (MALME-3M melanoma) was 1290 nM and the GI50 (HCC-2998 colon) was 1750 nM. The TGI (HCC-2998 colon) was 6670 nM, the GI50 (M14 melanoma) was 520 nM and the TGI (M14 melanoma) was 1140 nM. For the same compound, the GI50 (OVCAR-4 ovarian) was 992 nM, the TGI (OVCAR-4 ovarian) was 13500 nM and the GI50 (SW-620 colon) was 635 nM. For the same compound, the TGI (SW-620 colon) was 1550 nM, the GI50 (SF-295 CNS) was 11100 nM and the TGI (SF-295 CNS) was 25000 nM. For the same compound, the GI50 (HS 578T breast) was 3100 nM, the TGI (HS 578T breast) was 30700 nM and the GI50 (SK-MEL-28 melanoma) was 726 nM. The TGI (SK-MEL-28 melanoma) was 1700 nM, the GI50 (CCRF-CEM leukemia) was 378 nM and the TGI (CCRF-CEM leukemia) was 2100 nM. For the same compound, the GI50 (SK-MEL-5 melanoma) was 2850 nM, the TGI (SK-MEL-5 melanoma) was 17200 nM and the GI50 (HL-60(TB) leukemia) was 813 nM. It also gave a TGI (HL-60(TB) leukemia) of 2100 nM, a GI50 (HCT-15 colon) of 570 nM and a TGI (HCT-15 colon) of 1870 nM. For the same compound, the GI50 (UACC-257 melanoma) was 766 nM, the TGI (UACC-257 melanoma) was 2550 nM and the GI50 (SF-268 CNS) was 1720 nM. For the same compound, the TGI (SF-268 CNS) was 13400 nM, the GI50 (K-562 leukemia) was 897 nM and the TGI (K-562 leukemia) was 9080 nM. It also gave a GI50 (OVCAR-8 ovarian) of 1230 nM, a TGI (OVCAR-8 ovarian) of 9270 nM and a GI50 (OVCAR-5 ovarian) of 2160 nM. The TGI (OVCAR-5 ovarian) was 8530 nM, the GI50 (SR leukemia) was 656 nM and the TGI (SR leukemia) was 3840 nM. It also gave a GI50 (NCI-H226 lung) of 1100 nM, a TGI (NCI-H226 lung) of 5010 nM and a GI50 (786-0 renal) of 700 nM. For the same compound, the TGI (786-0 renal) was 1670 nM, the GI50 (SNB-19 CNS) was 3010 nM and the TGI (SNB-19 CNS) was 11000 nM. For the same compound, the GI50 (HCT-116 colon) was 471 nM, the TGI (HCT-116 colon) was 1020 nM and the GI50 (SN12C renal) was 3400 nM. It also gave a TGI (SN12C renal) of 12400 nM, a GI50 (MOLT-4 leukemia) of 843 nM and a TGI (MOLT-4 leukemia) of 2310 nM. The GI50 (SK-OV-3 ovarian) was 14600 nM, the TGI (SK-OV-3 ovarian) was 29300 nM and the GI50 (NCI-H460 lung) was 3160 nM. The TGI (NCI-H460 lung) was 18200 nM, the GI50 (EKVX NSCLC) was 3930 nM and the TGI (EKVX NSCLC) was 17400 nM. For the same compound, the GI50 (MCF7 breast) was 1310 nM, the TGI (MCF7 breast) was 5450 nM and the GI50 (T-47D breast) was 757 nM. It also gave a TGI (T-47D breast) of 2910 nM, a GI50 (LOX IMVI melanoma) of 405 nM and a TGI (LOX IMVI melanoma) of 1470 nM. The GI50 (MDA-MB-435) was 805 nM, the TGI (MDA-MB-435) was 2620 nM and the GI50 (MDA-MB-231 breast) was 1170 nM. It also gave a TGI (MDA-MB-231 breast) of 3960 nM, a GI50 (OVCAR-3 ovarian) of 595 nM and a TGI (OVCAR-3 ovarian) of 1530 nM. The GI50 (RXF 393 renal) was 509 nM, the TGI (RXF 393 renal) was 1070 nM and the GI50 (A498 renal) was 2920 nM. For the same compound, the TGI (A498 renal) was 20000 nM, the GI50 (IGROV1 ovarian) was 783 nM and the TGI (IGROV1 ovarian) was 2790 nM. It also gave a GI50 (SF-539 CNS) of 973 nM and a TGI (SF-539 CNS) of 3650 nM.
